Data: US4161520A, “Method of treating hypertension” (priority 1976, dated 1979)

Columns and labels:
[1] = system: DOCA-Na. rat; assay: Comparative antihypertensive activity of polyether ionophores in the DOCA-Na rat (Example 3, Table III); assay type: in vivo; details: oral, five-day period, daily dose 1/100 of oral LD50 up to 10 mg/kg/day; for AHR (Subacute antihypertensive ratio): bromolasalocid as standard reference; for DURATION OF EFFECT: monitored until return to pre-drug levels
Method: Using bromolasalocid as a standard for comparison, a number of polyether ionophores were tested for antihypertensive activity. The tests were conducted utilizing single oral dosages in the DOCA-Na. rat over a five-day period with dosing discontinued thereafter. Blood pressure monitoring was carried out for the five-day period and daily after cessation of dosing until blood pressure returned to pre-drug levels. […] The daily dosage was calculated by using one-one hundredth (1/100) of the oral (per os) toxicity (LD50) up to a maximum of 10 mg/kg/day. The antihypertensive activity expressed as AHR (Subacute antihypertensive ratio) was calculated using bromolasalocid as the standard reference (Table III).

[2] = Oral (per os) toxicity (LD50); assay type: in vivo

Molecule	ONSET TO MAX. RESPONSE [1] [days]	AHR (Subacute antihypertensive ratio) [1]	DURATION OF EFFECT [1] [days]	LD50 [2] [mg/kg]
COC1CCC(OC2C(C)C(O)(C(C)C(=O)O)OC(CC3CC(OC)C(C)C4(O3)OC(C)(C3CCC(C5CCC(C6OC(C)(O)C(C)C(OC)C6C)O5)O3)C(OC)C4C)C2(C)OC)OC1C (stereo not shown) [A-204]	4	86.6	5	14
CNc1ccc2oc(C[C@H]3O[C@@]4(CC[C@H]3C)O[C@H]([C@H](C)C(=O)c3ccc[nH]3)[C@H](C)C[C@H]4C)nc2c1C(=O)O [A-23187]	4	0.93	10	> 1000
CO[C@@H]1C[C@@H](C[C@H]2CC[C@H](C)[C@H]([C@@H](C)C(=O)O)O2)O[C@]2(O[C@](C)([C@H]3CC[C@@](C)([C@@H]4O[C@@H]([C@H]5O[C@@](O)(CO)[C@H](C)C[C@@H]5C)C[C@@H]4C)O3)C[C@H]2C)[C@@H]1C [NIGERICIN, Nigericin]	3	4.0	9	190
CC/C(=C\C=C\[C@@H]1C=C[C@@H]2[C@@H](CC)CC[C@H]2[C@@H]1C(=O)c1ccc[nH]1)[C@@H]1O[C@@H]([C@@H](C)C(=O)O)CC[C@@H]1C [X-14547A]	2	0.58	3	129
BROMOISOLASALOCID	2	0.85	8	> 1000
Lysocellin	2	2.08	3	225
Monensin	2	7.2	9	250
